Earlier results on six substances are cited in paper PMC10532012, “A Putative Role of Vasopressin/Oxytocin-Type Neuropeptide in Osmoregulation and Feeding Inhibition of Apostichopus japonicus” (International Journal of Molecular Sciences, 2023).

“Also recorded” adds a separate entry of the source. Where no end group is shown, it is not given here.

Data set [1] concerns Lasius neglectus. The conditions noted are these: inotocin signaling. Here is the method:
(§1) Based on the genes/transcripts encoding VP/OT-type neuropeptide signaling identified from protostomian and deuterostomian animals, the physiological effects of VP/OT superfamily signaling were analyzed and compared. In protostomes, multiple physiological functions of VP/OT-type neuropeptides in different Phylum have been characterized.

Data set [2] concerns C. elegans. How it is done: as §1
In data set [3] the test system is mammals. The source says:
The conservative functions of VP/OT-type neuropeptide in vertebrates have been extensively studied, mainly including water homeostasis, reproduction and social behavior [43, 44, 45]. However, few functional studies of VP/OT-type neuropeptide in deuterostomian invertebrates especially in echinoderms have been reported. Related physiological studies of echinoderm VP/OT-type neu ...

Data set [4] concerns rectum. The arrangement: method as in PMID 12972329.
Data set [5] relates to longitudinal muscle. The conditions noted are these: 10^−7–10^−5 M; positive control. Here is the method:
To investigate the function of holotocin, longitudinal muscle, intestine and tentacle from A. japonicus were prepared. […] Firstly, the longitudinal muscle and intestine of A. japonicus were dissected and cut into strips approximately 20 mm in length. Then, these preparations were put into a 50 mL glass organ bath containing 2 ...

For the substance inotocin, the energy regulation entry in data set [1] is “of vital importance in energy regulation”.

On to “Nematocin: VP/OT-type neuropeptide in nematode C. elegans (CFLNSCPYRRY; ends and bridges not checked; cysteine pairing not given here; UniProt Q4R128 20-30, looked up)”, for which, in data set [2], the associative learning entry was “neuro-modulatory role in associative learning”.

As to “CYFQNCPRG-NH2 (disulfide) [VP, neurohypophyseal hormone …-NH2]”, in data set [3], the antidiuretic activity result was “had antidiuretic activity” and the blood pressure entry is reported as “increased blood pressure”.

With “CYIQNCPLG-NH2 (disulfide) [OT, neurohypophyseal hormone …-NH2]”, in data set [3], the lactation result was “stimulated lactation” and the uterine contraction result is “caused the uterine contraction”.

In the case of octopressin, the contraction of rectum result in data set [4] is recorded as “tonic contraction”.

Consider “NGIWYamide [neuropeptide used as positive control for contraction of longitudinal muscles]”, for which the “contraction of longitudinal muscle, NGIWYamide” value in data set [5] was “reported to cause contraction of longitudinal muscle preparations; also recorded: confirmed to cause contraction of longitudinal muscles”.
